According to paper PMC12469269, “Investigating SMR Peptide Interactions with Breast Cancer-Associated Proteins” (International Journal of Molecular Sciences, 2025):

Assays:
Jurkat T cells = assay: exNef secretion, Mortalin scanning peptides (Figure 5A), Jurkat T cells; format: cell-based; conditions: for Jurkat GFP (exNef secretion): 50 ng / 200 μL peptide, 250 ng Nef-GFP plasmid, GFP fluorescence in media, SMRmut = 100, mean of three independent experiments
Protocol: To determine whether Mortalin-derived peptides can inhibit the secretion of extracellular Nef (exNef), Jurkat T cells were co-transfected with wild-type Nef-GFP and various scanning peptides derived from the substrate-binding domain of Mortalin (#56–#67). SMRwt and SMRmut peptides were included as positive and negative controls, respectively. After 48 h of incubation, GFP fluorescence in the culture media was measured as a proxy for exNef secretion.
(§1) Figure 5 Effects of Mortalin-derived peptides on inhibition of exNef and tumor exosome secretion. (A) Jurkat T cells were co-transfected with 250 ng of wild-type Nef-GFP plasmid and 50 ng of Mortalin-derived scanning peptides (#56–#67), including SMRwt and SMRmut as positive and negative controls. After 48 h, GFP fluorescence in culture media was measured to assess exNef secretion. Data represent mean ± SD from three independent experiments. Statistical significance was determined using a two-sample t-test assuming equal variances. (B) MDA-MB-231 cells were transfected with 50 ng of Mortalin-derived scanning peptides (#56–#67), including SMRwt and SMRmut controls. Cells were labeled with N-Rh-PE and incubated for 48 h. N-Rh-PE fluorescence in culture media was measured to assess exosome secretion. Data represent mean ± SD from three independent experiments. Statistical significance was determined using a two-sample t-test assuming equal variances. TEXT PRINTED IN THE PICTURE: (A) #56: Jurkat GFP (%): 117.84 (50 ng / 200 μL) | (A) #57: Jurkat GFP (%): 96.69 (50 ng / 200 μL) | (A) #58: Jurkat GFP (%): 91.89 (50 ng / 200 μL) | (A) #59: Jurkat GFP (%): 95.49 (50 ng / 200 μL) | (A) #60: Jurkat GFP (%): 98.25 (50 ng / 200 μL) | (A) #61: Jurkat GFP (%): 0.65 (50 ng / 200 μL) | (A) #62: Jurkat GFP (%): 0.51 (50 ng / 200 μL) | (A) #63: Jurkat GFP (%): 98.02 (50 ng / 200 μL) | (A) #64: Jurkat GFP (%): 95.37 (50 ng / 200 μL) | (A) #65: Jurkat GFP (%): 96.34 (50 ng / 200 μL) | (A) #66: Jurkat GFP (%): 92.28 (50 ng / 200 μL) | (A) #67: Jurkat GFP (%): 99.56 (50 ng / 200 μL) | (A) SMRwt: Jurkat GFP (%): 0.51 (50 ng / 200 μL) | (A) SMRmut: Jurkat GFP (%): 100 (50 ng / 200 μL) | (B) #56: MDA-MB-231 N-Rh-PE (%): 66.31 (50 ng / 200 μL) | (B) #57: MDA-MB-231 N-Rh-PE (%): 79.73 (50 ng / 200 μL) | (B) #58: MDA-MB-231 N-Rh-PE (%): 68.11 (50 ng / 200 μL) | (B) #59: MDA-MB-231 N-Rh-PE (%): 67.81 (50 ng / 200 μL) | (B) #60: MDA-MB-231 N-Rh-PE (%): 72.32 (50 ng / 200 μL) | (B) #61: MDA-MB-231 N-Rh-PE (%): 7.53 (50 ng / 200 μL) | (B) #62: MDA-MB-231 N-Rh-PE (%): 5.36 (50 ng / 200 μL) | (B) #63: MDA-MB-231 N-Rh-PE (%): 75.39 (50 ng / 200 μL) | (B) #64: MDA-MB-231 N-Rh-PE (%): 73.49 (50 ng / 200 μL) | (B) #65: MDA-MB-231 N-Rh-PE (%): 81.65 (50 ng / 200 μL) | (B) #66: MDA-MB-231 N-Rh-PE (%): 81.79 (50 ng / 200 μL) | (B) #67: MDA-MB-231 N-Rh-PE (%): 89.82 (50 ng / 200 μL) | (B) SMRwt: MDA-MB-231 N-Rh-PE (%): 6.11 (50 ng / 200 μL) | (B) SMRmut: MDA-MB-231 N-Rh-PE (%): 100 (50 ng / 200 μL)
To identify peptide sequences within Mortalin that modulate extracellular vesicle (EV) secretion, a panel of scanning peptides was synthesized and tested in Jurkat T cells. The peptides, listed in Table 1, were custom-synthesized with an average purity of 75% and used in transfection assays to evaluate their impact on EV release. Jurkat T cells (3 × 10^5) were co-transfected with 50 ng of individual Mortalin peptides […] 250 ng of wild-type Nef-GFP plasmid using Chariot™ transfection reagent. Transfection efficiency was confirmed by fluorescence microscopy after 48 h. EV secretion was assessed by measuring GFP fluorescence in the culture media, and statistical analysis was performed using unpaired two-factor t-tests (p < 0.05). Panel of Mortalin scanning peptides developed and tested for their effect EV secretion and Table S2. Mortalin Scanning Peptides Used in Transfection Assays, see the Supplementary Information. […]

MDA-MB-231 cells = assay: Tumor exosome secretion, Mortalin scanning peptides (Figure 5B), MDA-MB-231; format: cell-based, human; conditions: 48 h; for MDA-MB-231 N-Rh-PE (exosome secretion): 50 ng / 200 μL peptide, transfected, N-Rh-PE fluorescence in media, SMRmut = 100, mean of three independent experiments
Protocol: as §1
To assess the effect of Mortalin-derived peptides on tumor exosome secretion, MDA-MB-231 breast cancer cells were transfected with the same panel of scanning peptides and labeled with N-Rh-PE to track exosome release. Following incubation, N-Rh-PE fluorescence in the culture media was measured as a proxy for extracellular exosome levels. SMRwt and SMRmut peptides were again used as controls. […] Statistical analysis confirmed significant differences: SMRmut vs. #61 (p < 7.20 × 10^−7), SMRmut vs. #62 (p < 5.70 × 10^−7), and SMRmut vs. SMRwt (p < 5.96 × 10^−7).

For “DQLPADECNKLKEEISKMRE [#61, Mortalin scanning peptide 61]”, the “Jurkat GFP (exNef secretion)” value (Jurkat T cells; 48 h) was 0.65%, the “cluster formation / potential peptide aggregation” value (Jurkat T cells; Jurkat exNef experiment) was “formed small clusters” and the “p, SMRmut vs. peptide, exNef secretion” value (Jurkat T cells; two-sample t-test assuming equal variances, 50 ng peptide, 48 h) was < 1.47 × 10^−13. For the same substance, the “MDA-MB-231 N-Rh-PE (exosome secretion)” value (MDA-MB-231 cells) was 7.53% and the “p, SMRmut vs. peptide, exosome secretion” value (MDA-MB-231 cells; two-sample t-test assuming equal variances, 50 ng peptide) was < 7.20 × 10^−7.
With “^66Ala-Gly-Phe-Pro-Val^70 [SMRmut, 5-mer negative control, Val66 changed to Ala]” the “Jurkat GFP (exNef secretion)” value (Jurkat T cells; 48 h) was 100% and the “MDA-MB-231 N-Rh-PE (exosome secretion)” value (MDA-MB-231 cells) was 100%.
